Results from patent US20120232290A1, “REACTIVITY OF HYDROXYMETHYLGLUTARYL COENZYME A (HMG-COA) REDUCTASE INHIBITORS CONTAINING CONJUGATED DIENES WITH PHENOLIC ANTIOXIDANTS IN THE SOLID-STATE” (priority 2007, published 2012).
Where two headings read alike, the source gives them in different places.

How the values were obtained:
[1] = Stability of isolated simvastatin hydroperoxide degradates on storage; assay type: physicochemical; settings: stored under freezer conditions
[2] = assay type: physicochemical; settings: for hydroxy and hydroperoxide products formed: reactions with antioxidants, determined by LC/MS; for change in concentration of statin / decrease in concentration of statin: solid-state, 50° C., 9 days
Protocol: Solvents used varied due to the solubility of the statin. […] The beaker was placed in a dark oven maintained at 50° C. overnight. The beaker was removed from the oven, allowed to cool, then 20 mL of solvent were added and the beaker swirled to redissolve the solid. The beaker was returned to the oven and heated an additional 24 h at 50° C. This dissolution and heating process was repeated daily for the duration of the specific experiment. […] Reversed-phase HPLC analyses were performed using an Agilent 1100 HPLC with an Agilent diode array detector acquiring data in the range of 205-400 nm. This LC/MS-compatible method utilized a Discovery RP Amide C16 250 mm×4.6 mm, 5 μm column (Supelco Inc, Bellefonte Pa.). Mobile phase A was aqueous 0.1% (v/v) formic acid and mobile phase B was acetonitrile containing 0.1% (v/v) formic acid. Mobile phase flow rate was 1 mL/min and the column was maintained at 30° C. The elution sequence was isocratic 60% A:40% B for 0.5 min; a gradient of 60% A:40% B to 50% A:50% B over 1.5 min then hold for 28 min; 50% A:50% B to 20% A:80% B over 1.0 min then hold for 3 min; 20% A:80% B to 100% B over 1.0 min then hold for 4 min. LC/MS analyses were performed using a Waters Acquity UPLC with PDA and a Micro Quattro MS with infusion pump with the LC method described above.

[3] = aqueous solution, radical initiator; cited from earlier work

SMILES	degradation of statin [2]	change in concentration of statin ([2]; with BHA)	change in concentration of statin ([2]; with α-tocopherol)	decomposition of isolate on storage [1]	hydroxy and hydroperoxide products formed [2]	also measured
CCC(C)(C)C(=O)OC1C[C@](C)(OO)C=C2C=CC(C)C(CCC3CC(O)CC(=O)O3)C21 (stereo partly drawn) [3(S)-hydroperoxysimvastatin]	–	–	–	slowly decomposed to numerous products over a few days	–	–
CCC(C)(C)C(=O)OC1C[C@@](C)(OO)C=C2C=CC(C)C(CCC3CC(O)CC(=O)O3)C21 (stereo partly drawn) [3(R)-hydroperoxysimvastatin]	–	–	–	slowly decomposed to numerous products over a few days	–	–

Second part, led by results:

degradation of statin [2]	change in concentration of statin ([2]; with BHA)	change in concentration of statin ([2]; with α-tocopherol)	SMILES	decomposition of isolate on storage [1]	hydroxy and hydroperoxide products formed [2]	also measured
Minimal degradation	no decrease	no decrease	CC[C@H](C)C(=O)O[C@H]1CCC=C2C=C[C@H](C)[C@H](CC[C@@H]3C[C@@H](O)CC(=O)O3)[C@H]21 [mevastatin]	–	minimal quantities of hydroxy and hydroperoxide products	change in concentration of statin ([2]; incubated alone): no decrease; change in concentration of statin ([2]; with propyl gallate): no decrease
Minimal degradation	–	–	CC[C@H](C)C(=O)O[C@H]1C[C@H](O)C=C2C=C[C@H](C)[C@H](CC[C@@H](O)C[C@@H](O)CC(=O)O)[C@H]21 [pravastatin]	–	–	–
Minimal degradation	remained essentially unchanged	remained essentially unchanged	CC[C@H](C)C(=O)O[C@H]1C[C@@H](C)C=C2C=C[C@H](C)[C@H](CC[C@@H]3C[C@@H](O)CC(=O)O3)[C@H]21 [lovastatin]	–	minimal quantities of hydroxy and hydroperoxide products	decrease in concentration of statin ([2]; incubated alone): about 12%; decrease in concentration of statin ([2]; with propyl gallate): about 12%; rates of oxidation (lovastatin versus simvastatin) [3]: nearly identical rates of oxidation
